Measurements as given in patent US3995059A, “Pharmaceutical compositions containing fatty acid amide derivatives” (Sumitomo Chemical Company, Limited, priority 1966, dated 1976).

Tests used:
[1] = test system: liver cholesterol; experiment: Liver cholesterol (deposition of cholesterol and fat in the liver) of mice fed a cholesterol-rich diet (Table 1); format: in vivo; settings: for Liver cholesterol: 0.2% in diet, oral, 8 to 12 days
[2] = test system: total cholesterol value in the blood serum; experiment: Total cholesterol in blood serum of mice fed a diet enriched with cholesterol and bile acids (Table 1); format: in vivo; settings: 0.2% in diet, 8 to 12 days; for Serum cholesterol: oral
Procedure: The effectiveness of the compounds was tested by using mice fed on a specific diet which was enriched with cholesterol and bile acids. […] The amide compound as well was mixed with the specific diet in an amount of 0.2%, and continuously administered orally for 8 to 12 days. Then the total cholesterol value in the blood serum of the animals was evaluated.

[3] = experiment [III], control not given
[4] = experiment [VIII], control 2652

CCCCC/C=C\C/C=C\CCCCCCCC(=O)NC(C)c1ccc([N+](=O)[O-])cc1 (stereo not drawn) [drawing 73]
Liver cholesterol ([1]; experiment [XI], control 3451): 1011 mg/100 g.
Serum cholesterol ([2]; experiment [XI], control 595): 275 mg %

CCCCCCCCCCCCCC(=O)NC(C)c1ccccc1 (stereo not drawn) [drawing 10]
Liver cholesterol ([1]; experiment [II], control 3308): 1820 mg/100 g.
Serum cholesterol ([2]; experiment [II], control 521): 252 mg %

CCCCC/C=C\C/C=C\CCCCCCCC(=O)NC(C)c1ccc(Cl)c(Cl)c1 (stereo not drawn) [drawing 26]
Liver cholesterol ([1]; experiment [IV], control 3145): 1000 mg/100 g.
Serum cholesterol ([2]; experiment [IV], control 595): 251 mg %

CC/C=C\C/C=C\C/C=C\CCCCCCCC(=O)NC12CC3CC(CC(C3)C1)C2
Liver cholesterol ([1]; experiment [IX], control 2200): 750 mg/100 g.
Serum cholesterol ([2]; experiment [IX], control 336): 279 mg %

CCCCCCCC/C=C\CCCCCCCC(=O)NC(Cc1ccccc1)c1ccccc1 (stereo not drawn) [l- drawing 33]
Liver cholesterol ([1]; experiment [V], control 2640): 888 mg/100 g.
Serum cholesterol ([2]; experiment [V], control 372): 263 mg %

CCCCC/C=C\C/C=C\CCCCCCCC(=O)NC(C)c1ccc(Cl)cc1 (stereo not drawn) [drawing 25]
Liver cholesterol ([1]; experiment [IV], control 3145): 826 mg/100 g.
Serum cholesterol ([2]; experiment [IV], control 595): 217 mg %

CCCCCCCC/C=C\CCCCCCCC(=O)N(C1CCCCC1)C1CCCCC1
Liver cholesterol ([1]; experiment [XI], control 3451): 929 mg/100 g.
Serum cholesterol ([2]; experiment [XI], control 595): 309 mg %

CCCCCCCCCCCCCC(=O)NC(C)c1ccccc1 (stereo not drawn) [drawing 9]
Liver cholesterol ([1]; experiment [II], control 3308): 1620 mg/100 g.
Serum cholesterol ([2]; experiment [II], control 521): 302 mg %

CCCCCCCC/C=C\CCCCCCCC(=O)NC(CC)c1cccc([N+](=O)[O-])c1 (racemic)
Liver cholesterol ([1]; experiment [XI], control 3451): 1342 mg/100 g.
Serum cholesterol ([2]; experiment [XI], control 595): 362 mg %

CCCCC/C=C\C/C=C\CCCCCCCC(=O)NC(C)c1ccc(C)cc1 (stereo not drawn) [drawing 23]
Liver cholesterol ([1]; experiment [IV], control 3145): 828 mg/100 g.
Serum cholesterol ([2]; experiment [IV], control 595): 240 mg %

CC/C=C\C/C=C\C/C=C\CCCCCCCC(=O)NC(Cc1ccccc1)c1ccccc1 (stereo not drawn) [drawing 99]
Liver cholesterol ([1]; experiment [XI], control 3451): 623 mg/100 g.
Serum cholesterol ([2]; experiment [XI], control 595): 240 mg %

CCCCCCCC/C=C\CCCCCCCC(=O)NC(C)c1ccc(Br)cc1 (stereo not drawn) [drawing 79]
Liver cholesterol ([1]; experiment [XI], control 3451): 1009 mg/100 g.
Serum cholesterol ([2]; experiment [XI], control 595): 277 mg %

CC/C=C\C/C=C\C/C=C\CCCCCCCC(=O)NC(Cc1ccccc1)c1ccccc1 (stereo not drawn) [drawing 32]
Liver cholesterol ([1]; experiment [V], control 2640): 729 mg/100 g.
Serum cholesterol ([2]; experiment [V], control 372): 238 mg %

CCCCCCCC/C=C\CCCCCCCC(=O)NC(Cc1ccccc1)c1ccccc1 (stereo not drawn) [d- drawing 33]
Liver cholesterol ([1]; experiment [V], control 2640): 729 mg/100 g.
Serum cholesterol ([2]; experiment [V], control 372): 222 mg %

CC/C=C\C/C=C\C/C=C\CCCCCCCC(=O)NC(C)c1ccccc1 (single isomer, unassigned; (+)) [(+) N-(α-Methylbenzyl)-linolenamide]
Liver cholesterol ([1]; experiment [I], control 3585): 784 mg/100 g.
Serum cholesterol ([2]; experiment [I], control 546): 269 mg %

CC/C=C\C/C=C\C/C=C\CCCCCCCC(=O)NC(CC)c1ccc(OC)cc1 (stereo not drawn) [drawing 103]
Liver cholesterol ([1]; experiment [XI], control 3451): 1620 mg/100 g.
Serum cholesterol ([2]; experiment [XI], control 595): 339 mg %

CCCCCCCC/C=C\CCCCCCCC(=O)NC(C)c1ccccc1 (stereo not drawn) [drawing 8]
Liver cholesterol ([1]; experiment [II], control 3308): 1330 mg/100 g.
Serum cholesterol ([2]; experiment [II], control 521): 295 mg %

CC/C=C\C/C=C\C/C=C\CCCCCCCC(=O)NC(C)c1cccc(Cl)c1 (stereo not drawn) [drawing 96]
Liver cholesterol ([1]; experiment [XI], control 3451): 1029 mg/100 g.
Serum cholesterol ([2]; experiment [XI], control 595): 300 mg %

CC/C=C\C/C=C\C/C=C\CCCCCCCC(=O)NC(C)c1ccccc1 (single isomer, unassigned; (-)) [(-) (α-Methylbenzyl)-linolenamide]
Liver cholesterol ([1]; experiment [II], control 3308): 767 mg/100 g.
Serum cholesterol ([2]; experiment [II], control 521): 253 mg %

CCCCC/C=C\C/C=C\CCCCCCCC(=O)NC(C)c1ccc(Cl)c(Cl)c1 (stereo not drawn) [drawing 18]
Liver cholesterol [1, 3]: 856 mg/100 g.
Serum cholesterol ([2]; experiment [III], control 471): 315 mg %

CC/C=C\C/C=C\C/C=C\CCCCCCCC(=O)NC(CC)c1ccc(OC)cc1 (stereo not drawn) [drawing 102]
Liver cholesterol ([1]; experiment [XI], control 3451): 870 mg/100 g.
Serum cholesterol ([2]; experiment [XI], control 595): 280 mg %

CCCCCCCC/C=C\CCCCCCCC(=O)NC(C)c1ccc(CC)cc1 (racemic)
Liver cholesterol ([1]; experiment [X], control 3293): 1010 mg/100 g.
Serum cholesterol ([2]; experiment [X], control 554): 304 mg %

CC/C=C\C/C=C\C/C=C\CCCCCCCC(=O)NC(C)c1ccccc1C (stereo not drawn) [drawing 29]
Liver cholesterol ([1]; experiment [IV], control 3145): 913 mg/100 g.
Serum cholesterol ([2]; experiment [IV], control 595): 222 mg %

CCCCCCCC/C=C\CCCCCCCC(=O)NC(C)c1ccc(OC)cc1 (racemic)
Liver cholesterol ([1]; experiment [XI], control 3451): 1210 mg/100 g.
Serum cholesterol ([2]; experiment [XI], control 595): 382 mg %

CCCCCCCCCCCCCCCC(=O)NC(C)c1ccccc1 (stereo not drawn) [drawing 12]
Liver cholesterol ([1]; experiment [II], control 3308): 1160 mg/100 g.
Serum cholesterol ([2]; experiment [II], control 521): 314 mg %

CC/C=C\C/C=C\C/C=C\CCCCCCCC(=O)NC(C)c1ccc(C)cc1 (stereo not drawn) [drawing 67]
Liver cholesterol ([1]; experiment [X], control 3293): 1015 mg/100 g.
Serum cholesterol ([2]; experiment [X], control 554): 295 mg %

CCCCCC=CCC=CCCCCCCCC(=O)NC(Cc1ccccc1)c1ccccc1 (stereo not drawn) [C17 H31 CO]
Liver cholesterol ([1]; experiment [V], control 2640): 544 mg/100 g.
Serum cholesterol ([2]; experiment [V], control 372): 214 mg %

CCCCCCCC/C=C\CCCCCCCC(=O)NC(C)c1ccccc1[N+](=O)[O-] (stereo not drawn)
Liver cholesterol [1, 4]: 1113 mg/100 g.
Serum cholesterol ([2]; experiment [VIII], control 472): 309 mg %

CCCCC/C=C\C/C=C\CCCCCCCC(=O)NC(CC)c1ccc([N+](=O)[O-])cc1 (stereo not drawn)
Liver cholesterol [1, 4]: 980 mg/100 g.
Serum cholesterol ([2]; experiment [VIII], control 472): 331 mg %

CCCCCCCC/C=C\CCCCCCCC(=O)NC(CC)c1cccc([N+](=O)[O-])c1 (stereo not drawn) [drawing 81]
Liver cholesterol ([1]; experiment [XI], control 3451): 906 mg/100 g.
Serum cholesterol ([2]; experiment [XI], control 595): 289 mg %

CCCCCCCC/C=C\CCCCCCCC(=O)NC(C)c1ccccc1 (single isomer, unassigned; (-)) [(-) (α-Methylbenzyl)-oleamide]
Liver cholesterol ([1]; experiment [II], control 3308): 808 mg/100 g.
Serum cholesterol ([2]; experiment [II], control 521): 283 mg %

CC/C=C\C/C=C\C/C=C\CCCCCCCC(=O)NC(C)c1ccc(C)cc1 (stereo not drawn) [drawing 66]
Liver cholesterol ([1]; experiment [X], control 3293): 1000 mg/100 g.
Serum cholesterol ([2]; experiment [X], control 554): 249 mg %

CCCCC/C=C\C/C=C\CCCCCCCC(=O)NC(C)c1ccc(Cl)cc1 (stereo not drawn) [drawing 17]
Liver cholesterol [1, 3]: 946 mg/100 g.
Serum cholesterol ([2]; experiment [III], control 471): 225 mg %

CCCCC/C=C\C/C=C\CCCCCCCC(=O)NC(C)c1ccccc1 (single isomer, unassigned; (-)) [(-) (α-Methylbenzyl)-linoleamide]
Liver cholesterol ([1]; experiment [II], control 3308): 908 mg/100 g.
Serum cholesterol ([2]; experiment [II], control 521): 286 mg %

CCCCC/C=C\C/C=C\CCCCCCCC(=O)NC(C)c1ccc([N+](=O)[O-])cc1 (stereo not drawn) [drawing 44]
Liver cholesterol [1, 4]: 1603 mg/100 g.
Serum cholesterol ([2]; experiment [VIII], control 472): 340 mg %

CCCCCC=CCC=CCCCCCCCC(=O)NC(Cc1ccccc1)c1ccccc1 (stereo not drawn) [d- C17 H31 CO]
Liver cholesterol ([1]; experiment [V], control 2640): 500 mg/100 g.
Serum cholesterol ([2]; experiment [V], control 372): 200 mg %

CCCCCCCC/C=C\CCCCCCCC(=O)NC(C)c1ccccc1 (single isomer, unassigned; (+)) [(+) N-(α-Methylbenzyl)-oleamide]
Liver cholesterol ([1]; experiment [I], control 3585): 797 mg/100 g.
Serum cholesterol ([2]; experiment [I], control 546): 288 mg %

CCCCC/C=C\C/C=C\CCCCCCCC(=O)NC(C)c1ccc([N+](=O)[O-])cc1 (stereo not drawn) [drawing 74]
Liver cholesterol ([1]; experiment [XI], control 3451): 1098 mg/100 g.
Serum cholesterol ([2]; experiment [XI], control 595): 315 mg %

CCCCC/C=C\C/C=C\CCCCCCCC(=O)O [Linoleic acid, reference compound]
prevention of deposition of cholesterol and fat in the liver ([1]; animals fed on a diet rich in cholesterol): such effectiveness is never observed
Liver cholesterol ([1]; experiment [II], control 3308): 4491 mg/100 g.
Liver cholesterol ([1]; experiment [I], control 3585): 4585 mg/100 g.
Liver cholesterol ([1]; experiment [VII], control 3535): 4550 mg/100 g.
Liver cholesterol ([1]; experiment [V], control 2640): 3124 mg/100 g.
Serum cholesterol ([2]; experiment [II], control 521): 329 mg %
Serum cholesterol ([2]; experiment [I], control 546): 324 mg %
Serum cholesterol ([2]; experiment [VII], control 508): 341 mg %
Serum cholesterol ([2]; experiment [V], control 372): 351 mg %
ineffective cases and variation of effectiveness ([2]; mice): ineffective cases were sometimes observed due to the individual difference of the animals, and the effectiveness varied considerably even in the same individual animal

CCCCC/C=C\C/C=C\CCCCCCCC(=O)NC(CC)c1ccccc1 (single isomer, unassigned; (-)) [(-) (α-Ethylbenzyl)-linoleamide]
Liver cholesterol ([1]; experiment [II], control 3308): 821 mg/100 g.
Serum cholesterol ([2]; experiment [II], control 521): 251 mg %

CCC(NC(=O)CCCCCCCCCCCCCCC(C)C)c1ccc(C(C)(C)C)cc1 (stereo not drawn)
Liver cholesterol ([1]; experiment [IV], control 3145): 905 mg/100 g.
Serum cholesterol ([2]; experiment [IV], control 595): 297 mg %

CCCCC/C=C\C/C=C\CCCCCCCC(=O)NC(C)c1ccc(C)cc1 (stereo not drawn) [drawing 61]
Liver cholesterol ([1]; experiment [X], control 3293): 820 mg/100 g.
Serum cholesterol ([2]; experiment [X], control 554): 228 mg %

CC/C=C\C/C=C\C/C=C\CCCCCCCC(=O)NC(C)c1cccc(Cl)c1 (racemic)
Liver cholesterol ([1]; experiment [XI], control 3451): 1125 mg/100 g.
Serum cholesterol ([2]; experiment [XI], control 595): 309 mg %

CC(C)CCCCCCCCCCCCCCC(=O)NC(C)c1ccccc1 (single isomer, unassigned; (-)) [(-) (α-Methylbenzyl)-isostearamide]
Liver cholesterol ([1]; experiment [II], control 3308): 777 mg/100 g.
Serum cholesterol ([2]; experiment [II], control 521): 246 mg %

CCCCC/C=C\C/C=C\CCCCCCCC(=O)NC(CC)c1ccc(C)cc1 (stereo not drawn) [drawing 24]
Liver cholesterol ([1]; experiment [IV], control 3145): 908 mg/100 g.
Serum cholesterol ([2]; experiment [IV], control 595): 321 mg %

CCCCC/C=C\C/C=C\CCCCCCCC(=O)NC(C)c1ccc(Br)cc1 (stereo not drawn)
Liver cholesterol [1, 3]: 1341 mg/100 g.
Serum cholesterol ([2]; experiment [III], control 471): 322 mg %

CCCCCCCC/C=C\CCCCCCCC(=O)NC(C)c1ccc(OC)cc1 (stereo not drawn) [drawing 84]
Liver cholesterol ([1]; experiment [XI], control 3451): 1069 mg/100 g.
Serum cholesterol ([2]; experiment [XI], control 595): 306 mg %
